Read-outs that look alike come from different tables or passages of the source.
Key:
E. coli = assay: Survival rate of cells in 3.5% artificial seawater: E. coli; format: cell-based, Escherichia coli
Protocol: (§1) For comparison, 500 ppm of sodium bisulfite was added in place of sulfuric acid, and the data obtained are also shown in Table 1.

[1] = system: suspension of a solid deposit on a reverse osmosis membrane having been used in seawater desalination; assay: Survival rate of cells in 3.5% artificial seawater: suspension of deposit on membrane; format: cell-based
Protocol: as §1

[2] = system: un-identified bacteria as separated from the solid deposit suspension; assay: Survival rate of cells in 3.5% artificial seawater: cells from deposit on membrane; format: cell-based
Protocol: as §1

marine bacteria = assay: Colonies formed on agar medium for marine bacteria from treated seawater mixture; format: cell-based; conditions: 200 ppm of sulfuric acid, pH 2.8, for 2 hours at 20° C.; 0.1 ml plated on agar pH 7; untreated pH 8.5 gave 200
Protocol: 1% of seawater was added to commercially-available, 3.5% artificial seawater having been subjected to pressure disinfection (at 120° C. for 15 minutes), and the pH of the resulting seawater mixture was measured to be 8.5. After having been kept at 20° C. for 2 hours, 0.1 ml of the seawater mixture was applied onto an agar medium for marine bacteria, of which the pH value had been controlled to be 7, and then kept warmed at 20° C.
The pH of the resulting seawater mixture was 2.8. After having been kept at 20° C. for 2 hours, 0.1 ml of the seawater mixture was applied onto an agar medium for marine bacteria, of which the pH value had been controlled to be 7.

[3] = system: living cells in the concentrate; conditions: Example 1: sulfuric acid pH 3.5 to 4, 30 min/day, running days 1 to 30
Text: The invention is described concretely with reference to the following Examples, which, however, are not intended to restrict the scope of the invention. In these Examples, the disinfecting effect is represented by the number of living microorganisms, the pressure loss in membrane modules and the consumption of sodium bisulfite (SBS).
Two membrane separation units each having a reverse osmosis membrane of polyamide were driven for seawater desalination through reverse osmosis filtration to produce fresh water. […] In that condition, the two units were continuously driven for 1 month. […] While the units were driven under the condition, the number of the living cells in the concentrate having passed through each unit was counted.

acid-resistant bacteria = system: acid-resistant bacteria
Protocol: Two membrane separation systems (systems A and B) each comprising a pre-treatment unit and a membrane separation unit having a reverse osmosis membrane module of polyamide were driven for seawater desalination through reverse osmosis filtration to produce fresh water. In these, a culture of the acid-resistant bacteria having been obtained in Reference Example 3 was added to the pre-treated seawater. […] In those conditions, the two systems were continuously driven for 30 days. […] While the systems were driven under the defined conditions, the number of living cells in the concentrate was counted.

[4] = system: Escherichia coli K12 IFO 3301; conditions: physiological saline 0.9%
[5] = system: Acid-resistant Bacteria 1
[6] = system: Acid-resistant Bacteria 2
[7] = system: Acid-resistant Bacteria 3
[8] = 500 ppm, 2.5 hr, pH 5.9, 20° C.
[9] = 100 ppm, 2.5 hr, pH 5.1, 20° C.
[10] = 120 ppm, 0.5 hr, pH 4.0, 20° C.
[11] = 120 ppm, 2.5 hr, pH 4.0, 20° C.
[12] = 150 ppm, 0.5 hr, pH 3.3, 20° C.
[13] = 200 ppm, 0.5 hr, pH 2.9, 20° C.
[14] = 300 ppm, 0.5 hr, pH 2.5, 20° C.
[15] = 250 ppm, 0.5 hr, pH 2.6, 20° C.
[16] = 250 ppm, 2.5 hr, pH 2.6, 20° C.
[17] = 300 ppm, 0.5 hr, pH 2.6, 20° C.

## O=S([O-])O.[Na+] [Sodium Bisulfite, sodium bisulfite, reference compound]
E. coli; [8]
  Survival Rate (%) E. coli: 98%
[1]; [8]
  Survival Rate (%) Suspension of Deposit on Membrane: 90%
[2]; [8]
  Survival Rate (%) Cells from Deposit on Membrane: 86%

## O=S(=O)(O)O [Sulfuric Acid, sulfuric acid]
E. coli; [9]
  Survival Rate (%) E. coli: 107%
E. coli; [10]
  Survival Rate (%) E. coli: 105%
E. coli; [11]
  Survival Rate (%) E. coli: 93%
E. coli; [12]
  Survival Rate (%) E. coli: <1%
E. coli; [13]
  Survival Rate (%) E. coli: <1%
E. coli; [14]
  Survival Rate (%) E. coli: <1%
[1]; [9]
  Survival Rate (%) Suspension of Deposit on Membrane: 60%
[1]; [10]
  Survival Rate (%) Suspension of Deposit on Membrane: 37%
[1]; [11]
  Survival Rate (%) Suspension of Deposit on Membrane: 15%
[1]; [12]
  Survival Rate (%) Suspension of Deposit on Membrane: <1%
[1]; [13]
  Survival Rate (%) Suspension of Deposit on Membrane: <1%
[1]; [14]
  Survival Rate (%) Suspension of Deposit on Membrane: <1%
[2]; [9]
  Survival Rate (%) Cells from Deposit on Membrane: 81%
[2]; [12]
  Survival Rate (%) Cells from Deposit on Membrane: <1%
[2]; [13]
  Survival Rate (%) Cells from Deposit on Membrane: <1%
[2]; [14]
  Survival Rate (%) Cells from Deposit on Membrane: <1%
Marine bacteria
  Number of Colonies Formed: 3
[3]
  Number of Living Cells in the concentrate, compared with the unit not subjected to the sulfuric acid treatment:  1/100 or less
[3]; listed as sulfuric acid
  Number of Living Cells in the concentrate, compared with the unit not subjected to the sulfuric acid treatment: 1/100
acid-resistant bacteria; pH 2.6, 30 minutes a day
  Ratio of Living Microbes in Concentrate: <1
acid-resistant bacteria; pH 3.5 to 4.0, 30 minutes a day
  Ratio of Living Microbes in Concentrate: 100
acid-resistant bacteria; pH 3.5 to 4.0, 30 minutes a day, plus pH 2.6, 30 minutes a day (once at intervals of 5 days)
  Ratio of Living Microbes in Concentrate: <1
[4]; 10 ppm of sulfuric acid, pH 4.7, 20° C., 2.5 hours
  survival rate of the cells: ≥ 90%
[4]; 50 ppm of sulfuric acid, pH 3.2, 20° C., 0.5 hours
  survival rate of the cells: 90%
[4]; 50 ppm of sulfuric acid, pH 3.2, 20° C., 1 hour
  survival rate of the cells: 20%
[4]; 50 ppm of sulfuric acid, pH 3.2, 20° C., 2.5 hours
  survival rate of the cells: ≤ 1%
[4]; 100 ppm of sulfuric acid, 20° C., 0.5 hours
  survival rate of the cells: ≤ 1%
[5]; 200 ppm, 1 hr, pH 2.8, 20° C.
  Survival Rate (%) Acid-resistant Bacteria 1: 50%
[5]; [15]
  Survival Rate (%) Acid-resistant Bacteria 1: 17%
[5]; 250 ppm, 1 hr, pH 2.6, 20° C.
  Survival Rate (%) Acid-resistant Bacteria 1: <1%
[5]; [16]
  Survival Rate (%) Acid-resistant Bacteria 1: <1%
[5]; [17]
  Survival Rate (%) Acid-resistant Bacteria 1: 8%
[5]; 300 ppm, 1 hr, pH 2.4, 20° C.
  Survival Rate (%) Acid-resistant Bacteria 1: <1%
[6]; 200 ppm, 1 hr, pH 2.8, 20° C.
  Survival Rate (%) Acid-resistant Bacteria 2: 22%
[6]; [15]
  Survival Rate (%) Acid-resistant Bacteria 2: 33%
[6]; 250 ppm, 1 hr, pH 2.6, 20° C.
  Survival Rate (%) Acid-resistant Bacteria 2: 2%
[6]; [16]
  Survival Rate (%) Acid-resistant Bacteria 2: <1%
[6]; [17]
  Survival Rate (%) Acid-resistant Bacteria 2: 1%
[6]; 300 ppm, 1 hr, pH 2.4, 20° C.
  Survival Rate (%) Acid-resistant Bacteria 2: <1%
[7]; 200 ppm, 1 hr, pH 2.8, 20° C.
  Survival Rate (%) Acid-resistant Bacteria 3: <1%
[7]; [15]
  Survival Rate (%) Acid-resistant Bacteria 3: 1%
[7]; 250 ppm, 1 hr, pH 2.6, 20° C.
  Survival Rate (%) Acid-resistant Bacteria 3: <1%
[7]; [16]
  Survival Rate (%) Acid-resistant Bacteria 3: <1%
[7]; [17]
  Survival Rate (%) Acid-resistant Bacteria 3: <1%
[7]; 300 ppm, 1 hr, pH 2.4, 20° C.
  Survival Rate (%) Acid-resistant Bacteria 3: <1%

Reference: patent US6743363B2, “Method of bacteriostasis or disinfection for permselective membrane” (Toray Industries, Inc., priority 1998, dated 2004)
